Measurements reported in patent publication US11261190B2, “Dihydropyrimidine compounds and uses thereof in medicine” (SUNSHINE LAKE PHARMA CO., LTD., priority 2017, dated 2022).

How the values were obtained:
[1] = system: HBV; test: Anti HBV activity in vitro, viral DNA from HepG2.2.15 cells quantified by qPCR; type: cell-based; settings: qPCR of viral DNA in supernatant, read-out: EC50 against HBV replication
In short: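 HepG2.2.15 cells, grown 3 days to confluence, treated with 8-point 4-fold dilutions (top final 4 μM, 0.5% DMSO). Secreted HBV DNA in supernatant quantified by SYBR qPCR against plasmid standard curve; EC50 from four-parameter nonlinear regression of concentration vs viral copy number.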

[2] = system: HepG2.2.15 cells; test: Cytotoxicity in HepG2.2.15 cells (CellTiter Glo); type: cell-based; settings: 4 days, highest concentration 150 μM
In short: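 Serially diluted compound added to HepG2.2.15 cells (3000/well), top final concentration 150 μM; cultured 4 days at 37° C. Viability read by CellTiter Glo luminescence, cytotoxicity % relative to DMSO control wells, CC50 from four-parameter nonlinear regression.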

[3] = system: HBV; settings: Science, 2003, 299, 893-896; cited from earlier work

CCOC(=O)C1=C(CN2CCN3C(=O)N(c4nc(CCC(=O)O)cs4)C[C@@H]3C2)NC(c2nccs2)=N[C@H]1c1ccc(F)cc1Br [Example 30]
EC50 [1]: 12 nM | CC50 [2]: 133000 nM

Nc1ccn([C@@H]2CS[C@H](CO)O2)c(=O)n1 [lamivudine]
IC50 [3]: 300 nM
